Legend:
[1] = Stability of the polymer in liquid polymeric formulations (molecular weight by GPC, room temperature); format: physicochemical; conditions: formulation containing the peptide; for Stability of the polymer in liquid polymeric formulations: polymer molecular weight by GPC, room temperature
Procedure: (§1) Poly(DL-lactide-co-glycolide) (PLGA) of an 85/15 ratio of lactide to glycolide having a polydispersity of 1.5 (DLPLG85/15, IV: 0.28) was dissolved in N-methyl-2-pyrrolidone (NMP) to obtain a 50% solution by weight.
(§2) An aliquot from each formulation was taken for in vitro release in phosphate buffer at pH 7.4 containing 0.1% sodium azide at 37° C. and the remaining formulation was used to monitor the stability of the peptides and the polymer at room temperature over time. The time points are 0.125, 1, 2, 5, 7, 14, 21, and 28 days. Purity of the peptides in the sample was determined by HPLC. Molecular weight of the polymer was determined by gel permeation chromatography (GPC) using polystyrene standards with known molecular weights.
(§3) According to prior art, the presence of a nucleophilic group on a peptide can lead to an interaction between the peptide and the biodegradable polymer of a composition. The nucleophilic groups on the peptide can react with the biodegradable polymer to form acylated products and can catalyze the degradation of the biodegradable polymer. It is well known that when octreotide and poly(DL-lactide-co-glycolide) are combined, especially in an organic solution such as NMP, the octreotide will be acylated and the polymer will be degraded rapidly. The N-terminal conjugation of the octreotide in the present invention contains one primary amine, one secondary amine and one C-terminal carboxylic acid group and is expected to interact and/or react with the polymer similarly to the octreotide itself. […] However, the covalently conjugated octreotide was stable even after 56 days under the same condition. […] After 21 days, the molecular weight of the polymer was reduced by 50%. However, for the polymer in the formulation containing covalently conjugated octreotide, more than 90% of the original molecular weight was retained.

[2] = In vitro release of octreotide and Pal-PEG-BA-OCT from formulation in DLPLG85/15 solution in NMP; degradation/acylation by HPLC; format: physicochemical
Procedure: as §1, §2
And more than 50% of the octreotide detected in the releasing medium was degraded or acylated after 28 days. After 28 days, the polymer matrix was dissolved in acetonitrile, and the polymer was precipitated using water. The octreotide was analyzed by HPLC. […] It would be highly advantageous to prevent such interaction between the peptide and the polymer.

[3] = Stability of the peptides in liquid polymeric formulations (purity by HPLC, room temperature); format: physicochemical; conditions: for Stability of the peptides in liquid polymeric formulations: 6% drug load in 50% DLPLG85/15 in NMP, room temperature, purity by HPLC
Procedure: as §1, §2, §3

[4] = within 24 hours; 50/50 poly(DL-lactide-co-glycolide) having a carboxy terminal group, solution in NMP; cited from earlier work
[5] = In vitro release of ghrelin and deacylated ghrelin from formulations in RG503H solution in mPEG350; format: physicochemical; conditions: about 6% in 40% PLGA RG503H in mPEG350; PBS pH 7.4, 37° C.; two week period; HPLC
Procedure: 40% PLGA RG503H was prepared by appropriately dissolving the polymer in mPEG350. Then ghrelin (Human, Rat 1-5) and deacylated ghrelin (Des-n-Octanoyl-[Ser]^3-ghrelin (Human, Rat 1-5)) were mixed with the polymer solution at about 6% respectively. The formulations were thoroughly mixed to obtain uniform formulations.
The formulation suspensions (about 100 mg) were injected into in 3 mL phosphate buffer saline solution at pH 7.4 with 0.1% sodium azide at 37° C. The receiving fluid was replaced at selected time points with fresh buffer solution, and the removed buffer solution was diluted appropriately with PB at pH 7.4 and was analyzed for drug concentration by HPLC using corresponding standard curves.

[6] = in vivo; cited from earlier work
[7] = In vitro release of lysozyme and palmitoylated lysozyme from injectable polymer solution (RG503H in mPEG350); format: physicochemical; conditions: about 7% in 40% PLGA RG503H in mPEG350; PBS pH 7.4, 37° C.; UV 280 nm
Procedure: 40% PLGA RG503H was prepared by appropriately dissolving the polymer in mPEG350. Then Palmitoyl-Lysozyme and lysozyme were mixed with the polymer solution at about 7% respectively. The formulations were thoroughly mixed to obtain uniform formulations.
In vitro release of lysozyme and palmitoylated lysozyme from injectable polymer solution. The formulation suspensions (about 100 mg) were injected into in 3 mL phosphate buffer saline solution at pH 7.4 with 0.1% sodium azide at 37° C. The receiving fluid was replaced at selected time points with fresh buffer solution, and the removed buffer solution was diluted appropriately with PB at pH 7.4 and analyzed for drug concentration by UV spectrophotometer at 280 nm against standard curves.

C[C@@H](O)[C@@H]1NC(=O)[C@H](CCCCN)NC(=O)[C@@H](Cc2c[nH]c3ccccc23)NC(=O)[C@H](Cc2ccccc2)NC(=O)[C@@H](NC(=O)[C@H](N)Cc2ccccc2)CSSC[C@@H](C(=O)N[C@H](CO)[C@@H](C)O)NC1=O [Octreotide, octreotide]
Stability of the polymer in liquid polymeric formulations ([1]; Day 0): 100 | Stability of the polymer in liquid polymeric formulations ([1]; Day 0.1): 95.8 | Stability of the polymer in liquid polymeric formulations ([1]; Day 1): 75.3 | Stability of the polymer in liquid polymeric formulations ([1]; Day 2): 66.1 | Stability of the polymer in liquid polymeric formulations ([1]; Day 3): 65.3 | Stability of the polymer in liquid polymeric formulations ([1]; Day 7): 59.0 | Stability of the polymer in liquid polymeric formulations ([1]; Day 14): 57.1 | Stability of the polymer in liquid polymeric formulations ([1]; Day 21): 51.3 | molecular weight of the polymer reduced by ([1]; after 21 days at room temperature): 50% | peptide remaining in the polymer matrix acylated ([2]; after 28 days of in vitro release, matrix dissolved in acetonitrile, HPLC): more than 50% | peptide detected in the releasing medium degraded or acylated ([2]; after 28 days, phosphate buffer pH 7.4, 0.1% sodium azide, 37° C.): more than 50% | peptide detected in the releasing medium degraded or reacted with the polymer ([2]; within 3 hours, phosphate buffer pH 7.4, 0.1% sodium azide, 37° C.): about 30% | Stability of the peptides in liquid polymeric formulations ([3]; Day 7): 2.3 | Stability of the peptides in liquid polymeric formulations ([3]; Day 14): 0.6 | Stability of the peptides in liquid polymeric formulations ([3]; Day 21): 0.3 | Stability of the peptides in liquid polymeric formulations ([3]; Day 56): 0.0 | reaction of the peptide with the polymer ([3]; after 7 days at room temperature, poly(DL-lactide-co-glycolide) solution in NMP): almost completely reacted | peptide acylated ([3]; within 24 hours at room temperature, poly(DL-lactide-co-glycolide) solution in NMP): more than 80%

C[C@@H](O)[C@@H]1NC(=O)[C@H](CCCCN)NC(=O)[C@@H](Cc2c[nH]c3ccccc23)NC(=O)[C@H](Cc2ccccc2)NC(=O)[C@@H](NC(=O)[C@H](N)Cc2ccccc2)CSSC[C@@H](C(=O)N[C@H](CO)[C@@H](C)O)NC1=O [octreotide acetate]
octreotide acylated and/or degraded [4]: more than 80%

Des-n-Octanoyl-[Ser]^3-ghrelin (Human, Rat 1-5) [deacylated ghrelin]
in vitro release rate [5]: much faster release

Detemir
circulation half-life [6]: 10.2 ± 1.2 h

ghrelin (Human, Rat 1-5)
in vitro release rate [5]: much slower release rate

native lysozyme: Lysozyme (Mw 14,500), unmodified
initial in vitro release [7]: significant release initially
